{"source": "patent US9084791B2", "about": "“Method of inhibiting myopia and application of an adenylyl cyclase inhibitor as a drug for inhibiting myopia” (SCHOOL OF OPHTHALMOLOGY AND OPTOMETRY, WENZHOU MEDICAL …, priority 2010, dated 2015)", "system": "form-deprivation myopia of guinea pigs", "experiment": "Monocular form-deprivation myopia in guinea pigs, sub-conjunctival injection", "format": "in vivo, guinea pig", "conditions": "form-deprivation eyes, 1 μM and 100 μM sub-conjunctival injection daily, after 4 weeks, vs vehicle control group", "procedure": "Experimental animals were 3 weeks old, UK variety, three-color and short-haired guinea pigs. Monocular form-deprivation (FD) was performed by using a facemask, and the form-deprivation eyes were treated with adenylyl cyclase inhibitor (ACI) SQ22536 at different concentrations (for example, 1 μM and 100 μM) by sub-conjunctival injection, so as to differently decrease intraocular cAMP levels. Animals were divided into 4 groups randomly: form-deprivation control group (FD+non-injection), form-deprivation+vehicle control group (FD+vehicle) (vehicle here refers to 0.9% saline), form-deprivation+drug groups (FD+1 μM SQ22536 group and FD+100 μM SQ22536 group). Drugs were sub-conjunctivally injected at 9:00 am every day for 4 weeks. The contralateral eyes were not treated. Refraction were measured with an infrared eccentric refractometer (EIR). Corneal curvature radii were measured with a keratometer. Eye axis parameters, such as vitreous chamber depths and axial lengths, were measured with an A-scan ultrasonograph (11 MHz), respectively, before experiment, 2 weeks after treatment, and 4 weeks after treatment.", "data": [{"smiles": "Nc1ncnc2c1ncn2C1CCCO1", "note": "(stereo not drawn) [SQ22536, 9-(Tetrahydro-2-furanyl)-9H-purin-6-amine]", "values": [{"measurement": "myopic refractive error (refraction difference between experimental eye and contralateral eye)", "setting": "time- and concentration-dependent effect (FIG. 1)", "value": "less than that of the vehicle control group"}, {"measurement": "vitreous chamber elongation (vitreous chamber depth difference between experimental eye and contralateral eye)", "setting": "time- and concentration-dependent effect (FIG. 2)", "value": "significantly less than that of the vehicle control group"}, {"measurement": "axial elongation (axial length difference between experimental eye and contralateral eye)", "setting": "time- and concentration-dependent effect (FIG. 3)", "value": "significantly less than that of the vehicle control group"}]}]}
